Tests used:
LOX IMVI = assay: Growth inhibition of human LOXIMVI cells after 48 hrs by sulforhodamine B assay; type: functional
DU-145 = assay: Growth inhibition of human DU145 cells after 48 hrs by sulforhodamine B assay; type: functional; details: DU-145, 48 h
NCI-H460 = assay: Growth inhibition of human NCI-H460 cells after 48 hrs by sulforhodamine B assay; type: functional; details: NCI-H460, 48 h
M14 = assay: Growth inhibition of human M14 cells assessed as cell growth at 10 uM after 48 hrs by sulforhodamine B assay; type: functional; details: M14, 48 h, read-out: Activity
SK-MEL-28 = assay: Growth inhibition of human SK-MEL-28 cells after 48 hrs by sulforhodamine B assay; type: functional; details: SK-MEL-28, 48 h
SK-MEL-2 = assay: Growth inhibition of human SK-MEL-2 cells assessed as cell growth at 10 uM after 48 hrs by sulforhodamine B assay; type: functional; details: SK-MEL-2, 48 h, read-out: Activity
MOLT-4 = assay: Growth inhibition of human MOLT4 cells assessed as cell growth at 10 uM after 48 hrs by sulforhodamine B assay; type: functional; details: MOLT-4, 48 h, read-out: Activity
PC-3 = assay: Growth inhibition of human PC3 cells assessed as cell growth at 10 uM after 48 hrs by sulforhodamine B assay; type: functional; details: PC-3, 48 h, read-out: Activity
UO-31 = assay: Growth inhibition of human UO31 cells assessed as cell growth at 10 uM after 48 hrs by sulforhodamine B assay; type: functional; details: UO-31, 48 h, read-out: Activity
NCI-H23 = assay: Growth inhibition of human NCI-H23 cells assessed as cell growth at 10 uM after 48 hrs by sulforhodamine B assay; type: functional; details: NCI-H23, 48 h, read-out: Activity
OVCAR-5 = assay: Growth inhibition of human OVCAR5 cells assessed as cell growth at 10 uM after 48 hrs by sulforhodamine B assay; type: functional; details: OVCAR-5, 48 h, read-out: Activity
SK-OV-3 = assay: Growth inhibition of human SKOV3 cells after 48 hrs by sulforhodamine B assay; type: functional; details: SK-OV-3, 48 h
CAKI-1 = assay: Growth inhibition of human CAKI-1 cells after 48 hrs by sulforhodamine B assay; type: functional; details: CAKI-1, 48 h
SW-620 = assay: Growth inhibition of human SW620 cells assessed as cell growth at 10 uM after 48 hrs by sulforhodamine B assay; type: functional; details: SW-620, 48 h, read-out: Activity
HT-29 = assay: Growth inhibition of human HT-29 cells assessed as cell growth at 10 uM after 48 hrs by sulforhodamine B assay; type: functional; details: HT-29, 48 h, read-out: Activity
HOP-92 = assay: Growth inhibition of human HOP92 cells after 48 hrs by sulforhodamine B assay; type: functional, cell-based; details: HOP-92, 48 h
BT-549 = assay: Growth inhibition of human BT549 cells after 48 hrs by sulforhodamine B assay; type: functional; details: BT-549, 48 h
HOP-62 = assay: Growth inhibition of human HOP62 cells after 48 hrs by sulforhodamine B assay; type: functional; details: HOP-62, 48 h
K562 = assay: Growth inhibition of human K562 cells after 48 hrs by sulforhodamine B assay; type: functional; details: K562, 48 h
T47D = assay: Growth inhibition of human T47D cells after 48 hrs by sulforhodamine B assay; type: functional
COLO 205 = assay: Growth inhibition of human COLO205 cells after 48 hrs by sulforhodamine B assay; type: functional; details: COLO 205, 48 h
RPMI-8226 = assay: Growth inhibition of human RPMI8226 cells assessed as cell growth at 10 uM after 48 hrs by sulforhodamine B assay; type: functional; details: RPMI-8226, 48 h, read-out: Activity
MDA-MB-468 = assay: Growth inhibition of human MDA-MB-468 cells assessed as cell growth at 10 uM after 48 hrs by sulforhodamine B assay; type: functional; details: MDA-MB-468, 48 h, read-out: Activity
NCI-H522 [1] = assay: Growth inhibition of human NCI-H522 cells assessed as cell growth at 10 uM after 48 hrs by sulforhodamine B assay; type: functional; details: NCI-H522, 48 h, read-out: Activity
HCT-15 [2] = assay: Growth inhibition of human HCT15 cells after 48 hrs by sulforhodamine B assay; type: functional; details: HCT-15, 48 h
KM12 = assay: Growth inhibition of human KM12 cells assessed as cell growth at 10 uM after 48 hrs by sulforhodamine B assay; type: functional; details: KM12, 48 h, read-out: Activity
NCI-H522 [3] = assay: Growth inhibition of human NCI-H522 cells after 48 hrs by sulforhodamine B assay; type: functional; details: NCI-H522, 48 h
HL-60(TB) = assay: Growth inhibition of human HL-60(TB) cells after 48 hrs by sulforhodamine B assay; type: functional; details: HL-60, 48 h
OVCAR-3 = assay: Growth inhibition of human OVCAR3 cells assessed as cell growth at 10 uM after 48 hrs by sulforhodamine B assay; type: functional; details: OVCAR-3, 48 h, read-out: Activity
HCT-15 [4] = assay: Growth inhibition of human HCT15 cells assessed as cell growth at 10 uM after 48 hrs by sulforhodamine B assay; type: functional; details: HCT-15, 48 h, read-out: Activity
SF-539 = assay: Growth inhibition of human SF539 cells after 48 hrs by sulforhodamine B assay; type: functional; details: SF-539, 48 h
OVCAR-8 [5] = assay: Growth inhibition of human OVCAR8 cells assessed as cell growth at 10 uM after 48 hrs by sulforhodamine B assay; type: functional; details: OVCAR-8, 48 h, read-out: Activity
786-0 = assay: Growth inhibition of human 786-0 cells after 48 hrs by sulforhodamine B assay; type: functional; details: 786-0, 48 h
OVCAR-8 [6] = assay: Growth inhibition of human OVCAR8 cells after 48 hrs by sulforhodamine B assay; type: functional; details: OVCAR-8, 48 h
[7] = read-out: LC50 (the source's name)

## O=C(Nc1cccc(-n2cc(-c3ccncc3)c(-c3ccc(Cl)c(O)c3)n2)c1)c1ccc(N2CCOCC2)c(C(F)(F)F)c1
LOX IMVI
  GI50: 1.64 µM
  LC50: 44.8 µM
  TGI: 7.3 µM
DU-145
  GI50: 4.2 µM
  LC50: > 50 µM
  TGI: > 50 µM
NCI-H460
  GI50: 1.72 µM
  LC50: > 50 µM
  TGI: 14.8 µM
M14
  growth at 10 µM: 22.7%
SK-MEL-28
  GI50: 1.5 µM
  LC50: 42.9 µM
  TGI: 6.04 µM
SK-MEL-2
  growth at 10 µM: 17.6%
MOLT-4
  growth at 10 µM: 29.1%
PC-3
  growth at 10 µM: 27.2%
UO-31
  growth at 10 µM: 36.9%
NCI-H23
  growth at 10 µM: 61.3%
OVCAR-5
  growth at 10 µM: 116%
SK-OV-3
  GI50: 20 µM
  TGI: > 50 µM
SK-OV-3; [7]
  CC50: > 50 µM
CAKI-1
  GI50: 2.78 µM
  TGI: 24.6 µM
CAKI-1; [7]
  CC50: > 50 µM
SW-620
  growth at 10 µM: 6.29%
HT-29
  growth at 10 µM: 98%
HOP-92
  GI50: 0.555 µM
  IC50: 0.56 µM
  LC50: > 50 µM
  TGI: 3.81 µM
BT-549
  GI50: 19.4 µM
  LC50 (50% lethal concentration): > 50 µM
  TGI: > 50 µM
HOP-62
  GI50: 9.38 µM
  TGI: > 50 µM
HOP-62; [7]
  CC50: > 50 µM
K562
  GI50: 1.88 µM
  TGI: > 50 µM
K562; [7]
  CC50: > 50 µM
T47D
  GI50: 35.9 µM
  TGI: > 50 µM
T47D; [7]
  CC50: > 50 µM
COLO 205
  GI50: > 50 µM
  LC50 (concentration killing 50% of cells): > 50 µM
  TGI: > 50 µM
RPMI-8226
  growth at 10 µM: 5.19%
MDA-MB-468
  growth at 10 µM: 66%
NCI-H522 [1]
  growth at 10 µM: 39.6%
HCT-15 [2]
  GI50: 1.81 µM
  LC50: > 50 µM
  TGI: 25.3 µM
KM12
  growth at 10 µM: 30.6%
NCI-H522 [3]
  GI50: 2.31 µM
  LC50 (concentration killing 50% of cells): > 50 µM
  TGI: 44 µM
HL-60(TB)
  GI50: 3.81 µM
  TGI: > 50 µM
HL-60(TB); [7]
  CC50: > 50 µM
OVCAR-3
  growth at 10 µM: 56%
HCT-15 [4]
  growth at 10 µM: 26.2%
SF-539
  GI50: 1.37 µM
  LC50 (concentration killing 50% of cells): > 50 µM
  TGI: 17.3 µM
OVCAR-8 [5]
  growth at 10 µM: 37%
786-0
  GI50: 2.83 µM
  TGI: 12.5 µM
786-0; [7]
  CC50: 46.3 µM
OVCAR-8 [6]
  GI50: 3.16 µM
  TGI: > 50 µM
OVCAR-8 [6]; [7]
  CC50: > 50 µM
